Experimental data taken from US5869500A, “Pyridone compounds useful in treating Alzheimer's disease” (Hoffmann-La Roche Inc., priority 1996, dated 1999).

Test system: Aβ production in HEK cells over-expressing mutated β-APP (SFAD)
Assay: Aβ production inhibition, sandwich-ELISA in HEK cells, over-expressed mutated β-APP (SE-SFAD)
Type: cell-based, human
Details: for IC50: based on the respective plateau of maximum inhibition; for Emax: maximum inhibition plateau, read-out: SE-SFAD max. inhibition %
Protocol: The effect of test substances on the inhibition of Aβ-amyloid production can be measured in the supernatant of cell cultures of β-APP expressed cells using ELISA tests or other quantitative determination methods for β-APP degradation products. Typically, 8×10^5 cells (e.g. HEK cells, which express recombinant human β-APP variants) are plated out in each well of a culture dish having 24 wells in growth media such as e.g. OPTIMEM (Gibco) and the test compound is then added. After an incubation period of 24 to 48 hours at 37° C. in a 10% CO2 atmosphere the supernatant is removed from the cell cultures and the β-APP degradation products (e.g. Aβ or β-[…]) are determined with the aid of ELISA (or sandwich ELISA) analysis or by means of quantitative immunoprecipitation (after metabolic radiolabelling of the cell proteins). Typically, 300 μl of the cell supernatant are tested according to the state of the art for ELISA tests in culture dishes having 96 wells. In the case of sandwich ELISA for Aβ, the binding antibody can be directed against the first 16 amino acids of Aβ-peptide (e.g. 6E10 Senetek, Maryland Heights, Mo.) and the detection antibody can be directed against amino acids 17-40 or 17-42 of Aβ and carries a detection system such as e.g. peroxidase. A simple ELISA test with an antibody, e.g. 22C11 (Boehringer Mannheim), can be used as the test for […]; the second antibody can be an anti-(mouse) Ig having a detection system, such as e.g. peroxidase. The peroxidase reaction can be carried out e.g. using a TMB substrate (BioRAD) and the measurements can be carried out at 650 nm using an ELISA reading apparatus. […] SE-SFAD signifies the Aβ production inhibition measured using sandwich-ELISA in HEK cells, SFAD signifies over-expressed mutated β-APP, and SE-WT signifies the Aβ production inhibition measured using sandwich-ELISA in HEK cells which over-express Wild type β-APP. The IC50 values are based on the respective plateau of maximum inhibition.

[1] = Homo sapiens, HEK293, HEK cells

## COCCNC(=O)c1cc(-c2ccc(OCc3ccccc3)cc2)c(=O)n2ccc3ccsc3c12 [Compound 66, 8-(4-Benzyloxy-phenyl)-7-oxo-7H-thieno[2,3-a]quinolizine-10-carboxylic acid (2-methoxy-ethyl)-amide]
[1]
  IC50: 22000 nM
  Emax: 60%

## CCN(CCOC)C(=O)c1cc(-c2ccc(-c3ccccc3)cc2)c(=O)n2ccc3ccsc3c12 [Compound 93, 8-(Biphenyl-4-yl)-7-oxo-7H-thieno[2,3-a]quinolizine-10-carboxylic acid ethyl-(2-methoxy-ethyl)-amide]
[1]
  IC50: 4200 nM
  Emax: 100%

## COCCN(Cc1ccccc1)C(=O)c1cc(-c2ccc(Oc3ccccc3)cc2)c(=O)n2ccc3ccsc3c12 [Compound 100, 7--Oxo-8-(4-phenoxy-phenyl)-7H-thieno[2,3-a]quinolizine-10-carboxylic acid benzyl-(2-methoxy-ethyl)-amide]
[1]
  IC50: 600 nM
  Emax: 100%

## COCCN(C(=O)c1cc(-c2ccc(OCc3ccccc3)cc2)c(=O)n2ccc3cc(C(C)O)sc3c12)c1ccccc1 (racemic) [Compound 75, (RS)-8-(4-Benzyloxy-phenyl)-2-(1-hydroxy-ethyl)-7-oxo-7H-thieno[2,3-a]quinolizine-10-carboxylic acid (2-methoxy-ethyl)-phenyl-amide]
[1]
  IC50: 1300 nM
  Emax: 100%

## COc1ccc(NC(=O)c2cc(-c3ccccc3OC)c(=O)n3ccc4ccsc4c23)cc1 [Compound 142, 8-(2-Methoxy-phenyl)-7-oxo-7H-thieno[2,3-a]quinolizine-10-carboxylic acid (4-methoxy-phenyl)-amide]
[1]
  IC50: 1500 nM
  Emax: 20 to 100%

## COCCNC(=O)c1cc(-c2ccc(Oc3ccccc3)cc2)c(=O)n2ccc3ccsc3c12 [Compound 98, 7-Oxo-8-(4-phenoxy-phenyl)-7H-thieno[2,3-a]quinolizine-10-carboxylic acid (2-methoxy-ethyl)-amide]
[1]
  IC50: 2400 nM
  Emax: 70 to 90%

## O=C(NC1CCCCC1O)c1cc(-c2ccccc2)c(=O)n2ccc3ccsc3c12 (stereo not drawn) [Compound 25]
[1]
  IC50: 10000 nM
  Emax: 100%

## COCCN(CCOC)C(=O)c1cc(-c2ccc(C)cc2)c(=O)n2ccc3ccsc3c12 [Compound 150, 7--Oxo-8-p-tolyl-7H-thieno[2,3-a]quinolizine-10-carboxylic acid bis-(2-methoxy-ethyl)-amide]
[1]
  IC50: 2700 nM
  Emax: 100%

## COCCN(C(=O)c1cc(-c2ccccc2N)c(=O)n2ccc3ccsc3c12)c1ccccc1 [Compound 153, 8-(2-Amino-phenyl)-7-oxo-7H-thieno[2,3-a]chinolizine-10-carboxylic acid (2-methoxy-ethyl)-phenyl-amide]
[1]
  Emax: 20 to 40%

## CCN(CCOC)C(=O)c1cc(-c2ccc(OC)cc2)c(=O)n2ccc3ccsc3c12 [Compound 144, 8-(4-Methoxy-phenyl)-7-oxo-7H-thieno[2,3-a]quinolizine-10-carboxylic acid ethyl-(2-methoxy-ethyl)-amide]
[1]
  IC50: 2000 nM
  Emax: 40%

## O=C(c1cc(-c2ccc(OCc3ccccc3)cc2)c(=O)n2ccc3ccsc3c12)N(CCO)c1ccccc1 [Compound 73, 8-(4-Benzyloxy-phenyl)-7-oxo-7H-thieno[2,3-a]quinolizine-10-carboxylic acid (2-hydroxy-ethyl)-phenyl-amide]
[1]
  IC50: 1300 nM
  Emax: 55%

## COCCN(C(=O)c1cc(-c2ccc(OCc3ccccc3)cc2)c(=O)n2ccc3cc(C)sc3c12)c1ccccc1 [Compound 74]
[1]
  IC50: 300 nM
  Emax: 100%

## COCCN(C(=O)c1cc(-c2ccc(Oc3ccccc3)cc2)c(=O)n2ccc3ccsc3c12)c1ccccc1 [Compound 101, 7--Oxo-8-(4-phenoxy-phenyl)-7H-thieno[2,3-a]quinolizine-10-carboxylic acid (2-methoxy-ethyl)-phenyl-amide]
[1]
  IC50: 900 nM
  Emax: 100%

## COc1cccc(-c2cc(C(=O)Nc3ccncc3)c3c4sccc4ccn3c2=O)c1 [Compound 124, 8-(3-Methoxy-phenyl)-7-oxo-7H-thieno[2,3-a]quinolizine-10-carboxylic acid pyridin-4yl-amide]
[1]
  IC50: 800 nM
  Emax: 35%

## CCOC(=O)c1cc(-c2ccc(-c3ccccc3)cc2)c(=O)n2ccc3ccsc3c12 [Compound 94, Ethyl 8-(biphenyl-4-yl)-7-oxo-7H-thieno[2,3-a]quinolizine-10-carboxylate]
[1]
  Emax: 20 to 40%

## COCCN(C(=O)c1cc(-c2ccc(OCc3ccccc3)cc2)c(=O)n2ccc3c(ncn3C)c12)c1ccccc1 [Compound 102, 8-(4-Benzyloxy-phenyl)-3-methyl-7-oxo-3,7-dihydro-imidazo [4,5-a]quinolizine-10-carboxylic acid (2-methoxy-ethyl)-phenyl-amide]
[1]
  IC50: 3600 nM
  Emax: 80%

## COCCN(C(=O)c1cc(-c2ccc(OCc3ccccc3)cc2)c(=O)n2ccc3ccsc3c12)c1ccccc1 [Compound 72, 8-(4-Benzyloxy-phenyl)-7-oxo-7H-thieno[2,3-a]quinolizine-10-carboxylic acid (2-methoxy-ethyl)-phenyl-amide]
[1]
  IC50: 500 nM
  Emax: 100%

## CCCc1cc2ccn3c(=O)c(-c4ccc(OCc5ccccc5)cc4)cc(C(=O)N(CCOC)c4ccccc4)c3c2s1 [Compound 79, 8-(4-Benzyloxy-phenyl)-2-propyl-7-oxo-7H-thieno[2,3-a]quinolizine-10-carboxylic acid (2-methoxy-ethyl)-phenyl-amide]
[1]
  Emax: 20 to 35%

## COCCNC(=O)c1cc(-c2ccc(C(C)(C)C)cc2)c(=O)n2ccc3ccsc3c12 [Compound 110, 8-(4-tert-Butyl-phenyl)-7-oxo-7H-thieno[2,3-a]quinolizine-10-carboxylicacid (2-methoxy-ethyl)-amide]
[1]
  IC50: 6200 nM
  Emax: 95%

## CCN(CC)Cc1cccc(COC(=O)c2cc(-c3ccccc3)c(=O)n3ccc4ccsc4c23)c1 [Compound 60, 3-Diethylamino-methyl-benzyl 7-oxo-8-phenyl-7H-thieno[2,3-a]-quinolizine-10-carboxylate methanesulphonate]
[1]
  IC50: 1200 nM
  Emax: 100%

## COC(=O)c1cc(-c2ccccc2OC)c(=O)n2ccc3ccsc3c12 [Compound 114, Methyl 8-(2-methoxy-phenyl)-7-oxo-7H-thieno[2,3-a]quinolizine-10-carboxylate]
HEK cells
  IC50: 6300 nM
[1]
  Emax: 70%

## CCc1cc2ccn3c(=O)c(-c4ccc(OCc5ccccc5)cc4)cc(C(=O)N(CCOC)c4ccccc4)c3c2s1 [Compound 78, 8-(4-Benzyloxy-phenyl)-2-ethyl-7-oxo-7H-thieno[2,3-a]quinolizine-10-carboxylic acid (2-methoxy-ethyl)-phenyl-amide]
[1]
  Emax: 40%

## C#CCN(C(=O)c1cc(-c2cccc(OC)c2)c(=O)n2ccc3ccsc3c12)c1ccccc1 [Compound 127, 8-(3-Methoxy-phenyl)-7-oxo-7H-thieno[2,3-a]quinolizine-10-carboxylic acid phenyl-prop-2-ynyl-amide]
[1]
  IC50: 800 nM
  Emax: 100%

## C#CCN(C(=O)c1cc(-c2ccccc2OC)c(=O)n2ccc3ccsc3c12)c1ccccc1 [Compound 143, 8-(2-Methoxy-phenyl)-7-oxo-7H-thieno[2,3-a]quinolizine-10-carboxylic acid phenyl-prop-2-ynyl-amide]
[1]
  IC50: 5500 nM
  Emax: 40 to 100%

## CCN(CCOC)C(=O)c1cc(-c2ccccc2OC)c(=O)n2ccc3ccsc3c12 [Compound 122, 8-(2-Methoxy-phenyl)-7-oxo-7H-thieno[2,3-a]quinolizine-10-carboxylic acidethyl-(2-methoxy-ethyl)-amide]
[1]
  IC50: 8000 nM
  Emax: 25%

## COC(=O)c1cc(-c2ccc(Oc3ccccc3)cc2)c(=O)n2ccc3ccsc3c12 [Compound 96, Methyl 7-oxo-8-(4-phenoxy-phenyl)-7H-thieno[2,3-a]quinolizine-10-carboxylate]
[1]
  IC50: 1000 nM
  Emax: 40%

## COCCNC(=O)c1cc(-c2ccccc2OC)c(=O)n2ccc3ccsc3c12 [Compound 115, 8-(2-Methoxy-phenyl)-7-oxo-7H-thieno[2,3-a]quinolizine-10-carboxylic acid (2-methoxy-ethyl)-amide]
[1]
  IC50: 20000 nM
  Emax: 50%

## COCCN(CCOC)C(=O)c1cc(-c2ccc(-c3ccccc3)cc2)c(=O)n2ccc3ccsc3c12 [Compound 95, 8-(Biphenyl-4-yl)-7-oxo-7H-thieno[2,3-a]quinolizine-10-carboxylic acid bis-(2-methoxy-ethyl)-amide]
[1]
  IC50: 1300 nM
  Emax: 100%

## COCCN(Cc1cccs1)C(=O)c1cc(-c2cccc(OC)c2)c(=O)n2ccc3ccsc3c12 [Compound 125, 8-(3-Methoxy-phenyl)-7-oxo-7H-thieno[2,3-a]quinolizine-10-carboxylic acid (2-methoxy-ethyl)-thiophen-2-yl-methyl-amide]
[1]
  IC50: 2000 nM
  Emax: 10%
